According to PubChem BioAssay (NCI):
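Exposure lasted 48 hours, with cells grown in 96-well plates and compounds tested at five concentrations. TGI: concentration producing complete growth inhibition.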

Assays:
Test in all cases: inhibition of tumour cell growth, NCI panel, 48 h
DLD-1 colon = test system: DLD-1 colon
HL-60(TB) leukemia = test system: HL-60(TB) leukemia
DMS 273 small cell lung = test system: DMS 273 small cell lung
HOP-62 NSCLC = test system: HOP-62 NSCLC
LXFL 529 NSCLC = test system: LXFL 529 NSCLC
SK-MEL-5 melanoma = test system: SK-MEL-5 melanoma
OVCAR-5 ovarian = test system: OVCAR-5 ovarian
CCRF-CEM leukemia = test system: CCRF-CEM leukemia
DMS 114 small cell lung = test system: DMS 114 small cell lung
LOX IMVI melanoma = test system: LOX IMVI melanoma
UACC-257 melanoma = test system: UACC-257 melanoma
UACC-62 melanoma = test system: UACC-62 melanoma
IGROV1 ovarian = test system: IGROV1 ovarian
A549 NSCLC = test system: A549 NSCLC
MALME-3M melanoma = test system: MALME-3M melanoma
NCI-H522 lung = test system: NCI-H522 lung
CAKI-1 renal = test system: CAKI-1 renal
SK-MEL-28 melanoma = test system: SK-MEL-28 melanoma
HCT-15 colon = test system: HCT-15 colon
HCC-2998 colon = test system: HCC-2998 colon
OVCAR-4 ovarian = test system: OVCAR-4 ovarian
COLO 205 colon = test system: COLO 205 colon
XF 498 CNS = test system: XF 498 CNS
SK-MEL-2 melanoma = test system: SK-MEL-2 melanoma
KM20L2 colon = test system: KM20L2 colon
K-562 leukemia = test system: K-562 leukemia
RPMI-8226 leukemia = test system: RPMI-8226 leukemia
SNB-19 CNS = test system: SNB-19 CNS
SN12C renal = test system: SN12C renal
SNB-75 CNS = test system: SNB-75 CNS
UO-31 renal = test system: UO-31 renal
ACHN renal = test system: ACHN renal
SNB-78 CNS = test system: SNB-78 CNS
TK-10 renal = test system: TK-10 renal
RXF 393 renal = test system: RXF 393 renal
M19-MEL melanoma = test system: M19-MEL melanoma
HOP-92 NSCLC = test system: HOP-92 NSCLC
OVCAR-8 ovarian = test system: OVCAR-8 ovarian
HT29 colon = test system: HT29 colon
KM12 colon = test system: KM12 colon
786-0 renal = test system: 786-0 renal
SW-620 colon = test system: SW-620 colon
EKVX NSCLC = test system: EKVX NSCLC
SF-295 CNS = test system: SF-295 CNS
NCI-H460 lung = test system: NCI-H460 lung
SK-OV-3 ovarian = test system: SK-OV-3 ovarian
SF-268 CNS = test system: SF-268 CNS
RXF-631 renal = test system: RXF-631 renal
MOLT-4 leukemia = test system: MOLT-4 leukemia
NCI-H23 lung = test system: NCI-H23 lung
OVCAR-3 ovarian = test system: OVCAR-3 ovarian
M14 melanoma = test system: M14 melanoma
HCT-116 colon = test system: HCT-116 colon
A498 renal = test system: A498 renal
SF-539 CNS = test system: SF-539 CNS
NCI-H226 lung = test system: NCI-H226 lung
U251 CNS = test system: U251 CNS
SR leukemia = test system: SR leukemia

Measured: TGI

COc1ccc(CCNCc2cccc(OC)c2OC)cc1OC
> 100 µM: DLD-1 colon | HL-60(TB) leukemia | DMS 273 small cell lung | HOP-62 NSCLC | LXFL 529 NSCLC | SK-MEL-5 melanoma | OVCAR-5 ovarian | CCRF-CEM leukemia | DMS 114 small cell lung | LOX IMVI melanoma | UACC-257 melanoma | UACC-62 melanoma | IGROV1 ovarian | A549 NSCLC | MALME-3M melanoma | NCI-H522 lung | CAKI-1 renal | SK-MEL-28 melanoma | HCT-15 colon | HCC-2998 colon | OVCAR-4 ovarian | COLO 205 colon | XF 498 CNS | SK-MEL-2 melanoma | KM20L2 colon | K-562 leukemia | RPMI-8226 leukemia | SNB-19 CNS | SN12C renal | SNB-75 CNS | UO-31 renal | ACHN renal | SNB-78 CNS | TK-10 renal | RXF 393 renal | M19-MEL melanoma | HOP-92 NSCLC | OVCAR-8 ovarian | HT29 colon | KM12 colon | 786-0 renal | SW-620 colon | EKVX NSCLC | SF-295 CNS | NCI-H460 lung | SK-OV-3 ovarian | SF-268 CNS | RXF-631 renal | MOLT-4 leukemia | NCI-H23 lung | OVCAR-3 ovarian | M14 melanoma

CC(=O)OCC(OC(C)=O)C(OC(C)=O)C(OC(C)=O)C(=O)CNn1c(-c2ccccc2)nc2ccc(Br)cc2c1=O (centres undefined)
> 100 µM: HL-60(TB) leukemia | DMS 273 small cell lung | HOP-62 NSCLC | LXFL 529 NSCLC | SK-MEL-5 melanoma | OVCAR-5 ovarian | HCT-116 colon | A498 renal | CCRF-CEM leukemia | DMS 114 small cell lung | LOX IMVI melanoma | UACC-257 melanoma | UACC-62 melanoma | A549 NSCLC | MALME-3M melanoma | NCI-H522 lung | CAKI-1 renal | SK-MEL-28 melanoma | HCT-15 colon | OVCAR-4 ovarian | SF-539 CNS | COLO 205 colon | XF 498 CNS | SK-MEL-2 melanoma | KM20L2 colon | K-562 leukemia | RPMI-8226 leukemia | SNB-19 CNS | SN12C renal | SNB-75 CNS | UO-31 renal | ACHN renal | NCI-H226 lung | SNB-78 CNS | RXF 393 renal | M19-MEL melanoma | OVCAR-8 ovarian | HT29 colon | KM12 colon | U251 CNS | 786-0 renal | SR leukemia | SW-620 colon | EKVX NSCLC | SF-295 CNS | NCI-H460 lung | SK-OV-3 ovarian | SF-268 CNS | MOLT-4 leukemia | NCI-H23 lung | OVCAR-3 ovarian | M14 melanoma
